Like-named read-outs stand apart in the source and are kept apart here.
Experiments:
[1] = system: L929 cells; test: Two layer embedded modified agar overlay cytotoxicity test
Description: The test article meets the ‘pass’ criteria of the test if the biological response is less than or equal to grade 2 (mild).
1×MEMAOM was used as the nutrient supplement agar at 2 mL/well.
B) Two layer embedded modified agar overlay. The test materials were added after the base nutrient agar solidified, and 2.0 mL of L929 (1.8×10^6 cells/mL) cell agar mixture described above was added on top of the test materials to fully cover the test materials with a final cell concentration of 3.6×10^6 cells/well. After 24 hours of incubation, cells were examined as described in ISO/USP agar overlay method.
C) For the extended study duration, cells were prepared as described in A) and B). Reference material A and no treatment were evaluated for up to 72-hour incubation.
D) two layer modified and embedded modified agar overlay for liquid materials. Paper filter discs (100 μL of either 100% Ethanol or 2000 ppm BAK) were prepared as described in A) and B).

[2] = system: L929 cells; test: ISO/USP (traditional) agar overlay cytotoxicity test; assay type: cell-based, Mouse
Description: The ISO 10993-5 (2009) qualitative agar diffusion/overlay assay is appropriate for high density materials and liquids. This assay is conducted by adding a thin layer of nutrient-supplemented agar over the near confluent monolayer of L929 cells, and the test material (a solid sample, or an extract of the test material or liquid placed on filter paper) is placed on top of the agar layer. The cushioning effect of an agar layer protects the L929 cells from the potential mechanical damage by the test material's movement. Cells are examined after 24-hours incubation for signs of toxicity and stained with neutral red dye to differentiate between the viable, stressed or lysed cells. Cytotoxic leachates diffuse into the cell layer through the agar, and toxicity is indicated by a loss of viable cells around the test device as evidenced by area devoid of stain under and around the test material. The disadvantage of agar overlay assay is that potential cytotoxic leachates may bind to the agar and not be able to diffuse across the plate as compared to the liquid medium; thus, the cells are not fully exposed to the test substance.

[3] = system: L929 cells; settings: concentration known to be toxic to the rabbit eyes; Bruinink and Luginbuehl, 2012; cited from earlier work

Molecule	Color zone formation (observation), Two layer embedded Modified Agar Overlay ([1]; Table 4, liquids, 100 μL on paper filter)	Grade, color zone formation, ISO/USP Agar Overlay [2]	Color zone formation (observation), Two layer embedded Modified Agar Overlay [1]	Cytotoxicity responses, traditional agar overlay method (previous observations) [3]
CCO [Ethanol, ethanol]	no zone	–	–	–
Benzalkonium Chloride [BAK]	–	Grade 0	no zone	failed to show cytotoxicity responses

From patent US20190390245A1, “CYTOTOXICITY TEST METHOD FOR MEDICAL DEVICE” (ALCON INC., priority 2018, published 2019)
